Tests used:
HPC culture = conditions: previously demonstrated, cited from earlier work
human HPCs = human HPCs cultured in vitro; previously demonstrated; cited from earlier work
HPCs = test: NK cell production from HPCs treated with SR8278 and/or cultured on rDLL4 (flow cytometry); format: cell-based, mouse; conditions: SR8278 on day 2 of culture, no rDLL4; average of triplicate experiments
Protocol: HPCs were cultured in four sets of conditions in addition to control (non-treated) conditions: (i) treated with SR8278 on day 2 of culture (no recombinant DLL4, rDLL4); (ii) cultured on rDLL4 (no SR8278); (iii) cultured on rDLL4 and treated with SR8278 on day 0 of culture; or (iv) treated with SR8278 on day 0 of culture, cultured on rDLL4 from day 2. Aside from the different treatments, the culture conditions were otherwise identical to those previously described for NK cell production from HPCs.
This experiment was repeated with an expanded set of culture conditions, as set out in FIG. 13. The results of this duplicate experiment are illustrated in FIG. 14.
Lineage negative HPCs were purified from mouse bone marrow by crushing the leg bones in Phosphate-buffered Saline (PBS) with 2% fetal calf serum (FCS) (STEMCELL Technologies), topped up to 40 ml with magnetic-activated cell sorting (MACS) buffer (PBS, 2 mM EDTA, 0.5% BSA, sterile and filtered) and centrifuged at 800 g for 2 minutes. […]
(§1) Cells to be analysed by flow cytometry were passed through 40 μm cell strainers to remove clumps and washed with PBS buffer, centrifuged at 800 g for 2 minutes and resuspended in 100 μl fluorescent activated cell sorting (FACS) buffer (PBS plus 1% BSA) with appropriate fluorochrome conjugated antibodies at a dilution of 1 in 300. […]

E4bp4 = conditions: cited from earlier work
E4bp4−/− Lin− BM cells = test: NK cell development from E4bp4−/− Lin− BM cells on rDLL1/rDLL4-coated plates; format: cell-based, mouse; conditions: plates coated with 10 μg/ml ligand, first 7 days of culture, then IL-15
Protocol: As E4bp4 appeared to regulate Notch1 expression, it was speculated that enhanced Notch signalling, at an early stage, could potentially affect the development of NK cells from E4bp4^−/− HPCs. To study NK cell development from HPCs in the presence or absence of Notch signalling, Lin^− BM cells were cultured on either OP9 stromal cells or OP9-DL1 cells (that express the Notch ligand delta-like 1) (FIG. 10C). Subsequently, cells were transferred onto fresh OP9 and cultured in the presence of IL-15 (FIG. 11A). When E4bp4^−/− cells were grown on control OP9, no NK cell development was observed, but when the E4bp4^−/− cells were grown on OP9-DL1 for the first part of the culture, remarkably, NK cell development was rescued (FIG. 11B). The same result was not observed when the cells were grown on OP9-DL1 for the second part of the culture (FIG. 11B). To eliminate the influence of stromal cells, tissue culture plates were coated with either recombinant delta-like ligand 1 (rDLL1) or rDLL4 protein. […]
as §1

Row | Molecule | Optimum dose for in vitro NK cell production (HPC culture; added to the HPC culture, optimum time Day 2) [µM] | Increase of production of NK cells (HPC culture; upon administration of SR8278) | Human NK cell development (human HPCs) | % of NK cells produced (HPCs) [%] | E4bp4 expression (E4bp4) | Rescue of NK cell production in the absence of E4bp4 (E4bp4−/− Lin− BM cells)
1 | CCOC(=O)C1Cc2ccccc2CN1C(=O)c1ccc(SC)s1 (stereo not drawn) [SR8278, 1,2,3,4-Tetrahydro-2-[[5-(methylthio)-2-thienyl]carbonyl]-3-isoquinolinecarboxylic acid ethyl ester] | 10 | more than 2 fold | significantly increase | 57.5 | increased | –
2 | rDLL1: recombinant delta-like ligand 1 protein (R&D Systems), coated on culture plates (protein, UniProt O00548 18-723, looked up) Delta-like protein 1: QVWSSGVFELKLQEFVNKKGLLGNRNCCRGGAGPPPCACRTFFRVCLKHYQASVSPEPPCTYGSAVTPVLGVDSFSLPDGGGADSAFSNPIRFPFGFTWPGTFSLIIEALHTDSPDDLATENPERLISRLATQRHLTVGEEWSQDLHSSGRTDLKYSYRFVCDEHYYGEGCSVFCRPRDDAFGHFTCGERGEKVCNPGWKGPYCTEPICLPGCDEQHGFCDKPGECKCRVGWQGRYCDECIRYPGCLHGTCQQPWQCNCQEGWGGLFCNQDLNYCTHHKPCKNGATCTNTGQGSYTCSCRPGYTGATCELGIDECDPSPCKNGGSCTDLENSYSCTCPPGFYGKICELSAMTCADGPCFNGGRCSDSPDGGYSCRCPVGYSGFNCEKKIDYCSSSPCSNGAKCVDLGDAYLCRCQAGFSGRHCDDNVDDCASSPCANGGTCRDGVNDFSCTCPPGYTGRNCSAPVSRCEHAPCHNGATCHERGHRYVCECARGYGGPNCQFLLPELPPGPAVVDLTEKLEGQGGPFPWVAVCAGVILVLMLLLGCAAVVVCVRLRLQKHRPPADPCRGETETMNNLANCQREKDISVSIIGATQIKNTNKKADFHGDHSADKNGFKARYPAVDYNLVQDLKGDDTAVRDAHSKRDTKCQPQGSSGEEKGTPTTLRGGEASERKRPDSGCSTSKDTKYQSVYVISEEKDECVIATEV | – | – | – | – | – | Only a very partial rescue

Reference: US11566226B2, “Natural killer cells” (Imperial College of Science, Technology and Medicine, priority 2017, dated 2023)
